Where a name gives a salt, the structure may show the parent alone. Calls of active or inactive are those of the source. No cut-off for these calls is given here.
Assays:
[1] = Cytotoxicity against human MCF-10A cells assessed as inhibition of cell growth incubated for 48 hrs by MTT assay; format: toxicity, cell-based
[2] = biological target: Protein-arginine deiminase type-2 (Homo sapiens, UniProt Q9Y2J8); assay: Inhibition of PAD2 (unknown origin) using Nalpha-benzoyl-L-arginine ethyl ester as substrate preincubated for 60 mins followed by substrate addition and measured after 90 mins by colorimetric analysis
MDA-MB-468 = assay: Antiproliferative activity against human MDA-MB-468 cells assessed as inhibition of cell growth incubated for 48 hrs by MTT assay; format: functional, cell-based; conditions: MDA-MB-468, 48 h
4T1 = assay: Antiproliferative activity against mouse 4T1 cells assessed as inhibition of cell growth incubated for 48 hrs by MTT assay; format: functional, cell-based; conditions: 4T1, 48 h
[3] = biological target: Protein-arginine deiminase type-4 (Homo sapiens, UniProt Q9UM07); assay: Inhibition of PAD4 (unknown origin) using Nalpha-benzoyl-L-arginine ethyl ester as substrate preincubated for 60 mins followed by substrate addition and measured after 90 mins by colorimetric analysis
[4] = Antitumor activity against mouse orthotopic 4T1-Luc cells implanted in female BALB/c mouse assessed as tumor growth inhibition at 1.16 mg/kg, iv administered via tail vein every 2 days for 9 times for 17 days and measured every 2 days relative to control; format: functional; conditions: 408 h, time 17 day, read-out: TGI
[5] = Toxicity in female BALB/c mouse implanted with mouse orthotopic 4T1-Luc cells assessed as reduction in body weight at 1.16 mg/kg, iv administered via tail vein every 2 days for 9 times for 17 days and measured every 2 days; format: organism-based; conditions: in vivo, 408 h, time 17 day
[6] = biological target: T1, Protein-arginine deiminase type-3 (Homo sapiens) (UniProt Q9ULW8); assay: Inhibition of 6His-tagged recombinant human PAD3 expressed in Escherichia coli BL21-DE3 pLysS cells using N-benzoylated arginine ethyl ester hydrochloride as substrate assessed as ratio of Kinact/Ki preincubated for 30 mins followed by substrate addition and measured after 15 mins by […] assay; conditions: time 45.0 min
T1 sequence (whole entry): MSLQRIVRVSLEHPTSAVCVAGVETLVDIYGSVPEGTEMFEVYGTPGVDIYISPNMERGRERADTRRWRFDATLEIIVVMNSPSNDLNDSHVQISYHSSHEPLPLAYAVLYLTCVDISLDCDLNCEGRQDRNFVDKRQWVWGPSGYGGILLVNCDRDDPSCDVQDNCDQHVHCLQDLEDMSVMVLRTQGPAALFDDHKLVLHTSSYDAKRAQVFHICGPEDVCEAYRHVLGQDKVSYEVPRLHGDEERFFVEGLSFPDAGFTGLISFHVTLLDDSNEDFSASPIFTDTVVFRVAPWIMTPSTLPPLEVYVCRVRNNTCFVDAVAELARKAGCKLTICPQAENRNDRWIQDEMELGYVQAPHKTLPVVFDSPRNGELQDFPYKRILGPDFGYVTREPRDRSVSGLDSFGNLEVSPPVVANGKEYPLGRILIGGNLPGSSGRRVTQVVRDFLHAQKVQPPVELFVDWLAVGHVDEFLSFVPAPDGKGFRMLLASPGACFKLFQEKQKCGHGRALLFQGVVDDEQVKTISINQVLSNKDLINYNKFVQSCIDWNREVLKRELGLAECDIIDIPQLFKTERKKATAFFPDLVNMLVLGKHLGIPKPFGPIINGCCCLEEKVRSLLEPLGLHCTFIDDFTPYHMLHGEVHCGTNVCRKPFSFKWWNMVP

[7] = Terminal half life in male Sprague-Dawley rat at 3.5 mg/kg, iv by LC-MS/MS analysis; format: ADME, organism-based; conditions: in vivo
Neutrophil = assay: In vivo inhibition of PAD4 in female BALB/c mouse implanted with mouse orthotopic 4T1-Luc cells assessed as inhibition of neutrophil extracellular traps formation in tumor at 10 mg/kg, iv administered via tail vein every 2 days for 9 times for 17 days by immunohistochemical staining based analysis; format: functional, organism-based; conditions: time 17.0 day
[8] = Cmax in male Sprague-Dawley rat at 3.5 mg/kg, iv by LC-MS/MS analysis; format: ADME, organism-based; conditions: in vivo
[9] = biological target: Protein-arginine deiminase type-4 (Mus musculus) (UniProt Q9Z183); assay: Inhibition of PAD4 in BALB/c mouse bone marrow neutrophils assessed as reduction in neutrophil extracellular traps formation at 2 uM preincubated for 2 hrs followed by calcium ionophore A23187 addition and measured after 2 hrs by Hoechst 33342/Ly6G staining based laser confocal microscopic analysis; format: tissue-based; conditions: time 4.0 hrs
[10] = biological target: Protein-arginine deiminase type-4 (Mus musculus) (UniProt Q9Z183); assay: Inhibition of PAD4 in BALB/c mouse bone marrow neutrophils assessed as reduction in histone H3 citrullination at 2 uM preincubated for 2 hrs followed by calcium ionophore A23187 addition and measured after 2 hrs by Hoechst 33342/Ly6G staining based laser confocal microscopic analysis; conditions: Neutrophil, time 4.0 hrs
[11] = Toxicity in female BALB/c mouse implanted with mouse orthotopic 4T1-Luc cells assessed as reduction in liver weight at 10 mg/kg, iv administered via tail vein every 2 days for 9 times for 17 days; format: organism-based; conditions: in vivo, 408 h, time 17 day
[12] = Antitumor activity against mouse orthotopic 4T1-Luc cells implanted in female BALB/c mouse assessed as tumor growth inhibition at 10 mg/kg, iv administered via tail vein every 2 days for 9 times for 17 days and measured every 2 days relative to control; format: functional; conditions: 408 h, time 17 day, read-out: TGI
[13] = Tmax in male Sprague-Dawley rat at 3.5 mg/kg, iv by LC-MS/MS analysis; format: ADME, organism-based; conditions: in vivo
Mus musculus = assay: In vivo inhibition of PAD4 in female BALB/c mouse implanted with mouse orthotopic 4T1-Luc cells assessed as inhibition of histone H3 citrullination in tumor at 10 mg/kg, iv administered via tail vein every 2 days for 9 times for 17 days by immunohistochemical staining based analysis; format: functional, organism-based; conditions: time 17.0 day
[14] = Toxicity in female BALB/c mouse implanted with mouse orthotopic 4T1-Luc cells assessed as reduction in body weight at 10 mg/kg, iv administered via tail vein every 2 days for 9 times for 17 days and measured every 2 days; format: organism-based; conditions: in vivo, 408 h, time 17 day
[15] = Toxicity in female BALB/c mouse implanted with mouse orthotopic 4T1-Luc cells assessed as reduction in kidney weight at 10 mg/kg, iv administered via tail vein every 2 days for 9 times for 17 days; format: organism-based; conditions: in vivo, 408 h, time 17 day
[16] = AUC (0 to t) in male Sprague-Dawley rat at 3.5 mg/kg, iv by LC-MS/MS analysis; format: ADME, organism-based; conditions: in vivo
[17] = AUC (0 to infinity) in male Sprague-Dawley rat at 3.5 mg/kg, iv by LC-MS/MS analysis; format: ADME, organism-based; conditions: in vivo

Sequence of Protein-arginine deiminase type-4 (Q9UM07 whole entry): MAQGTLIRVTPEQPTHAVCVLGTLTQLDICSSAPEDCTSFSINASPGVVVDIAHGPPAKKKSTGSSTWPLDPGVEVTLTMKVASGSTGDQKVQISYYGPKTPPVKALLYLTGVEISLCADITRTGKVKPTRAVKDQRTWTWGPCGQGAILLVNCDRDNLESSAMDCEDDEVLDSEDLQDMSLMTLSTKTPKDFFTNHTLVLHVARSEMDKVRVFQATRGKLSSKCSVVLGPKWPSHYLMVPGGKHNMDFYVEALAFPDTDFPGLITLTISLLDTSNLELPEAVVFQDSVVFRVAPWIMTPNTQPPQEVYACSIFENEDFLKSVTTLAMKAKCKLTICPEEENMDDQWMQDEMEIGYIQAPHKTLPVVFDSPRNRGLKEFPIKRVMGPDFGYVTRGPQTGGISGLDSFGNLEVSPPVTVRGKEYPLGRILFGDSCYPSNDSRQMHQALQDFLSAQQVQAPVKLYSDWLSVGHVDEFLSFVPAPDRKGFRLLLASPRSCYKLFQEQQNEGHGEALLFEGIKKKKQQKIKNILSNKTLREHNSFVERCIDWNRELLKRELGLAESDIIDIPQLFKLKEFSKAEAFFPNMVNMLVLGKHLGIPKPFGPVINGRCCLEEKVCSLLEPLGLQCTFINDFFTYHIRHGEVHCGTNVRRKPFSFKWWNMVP
Sequence of Protein-arginine deiminase type-2 (Q9Y2J8 whole entry): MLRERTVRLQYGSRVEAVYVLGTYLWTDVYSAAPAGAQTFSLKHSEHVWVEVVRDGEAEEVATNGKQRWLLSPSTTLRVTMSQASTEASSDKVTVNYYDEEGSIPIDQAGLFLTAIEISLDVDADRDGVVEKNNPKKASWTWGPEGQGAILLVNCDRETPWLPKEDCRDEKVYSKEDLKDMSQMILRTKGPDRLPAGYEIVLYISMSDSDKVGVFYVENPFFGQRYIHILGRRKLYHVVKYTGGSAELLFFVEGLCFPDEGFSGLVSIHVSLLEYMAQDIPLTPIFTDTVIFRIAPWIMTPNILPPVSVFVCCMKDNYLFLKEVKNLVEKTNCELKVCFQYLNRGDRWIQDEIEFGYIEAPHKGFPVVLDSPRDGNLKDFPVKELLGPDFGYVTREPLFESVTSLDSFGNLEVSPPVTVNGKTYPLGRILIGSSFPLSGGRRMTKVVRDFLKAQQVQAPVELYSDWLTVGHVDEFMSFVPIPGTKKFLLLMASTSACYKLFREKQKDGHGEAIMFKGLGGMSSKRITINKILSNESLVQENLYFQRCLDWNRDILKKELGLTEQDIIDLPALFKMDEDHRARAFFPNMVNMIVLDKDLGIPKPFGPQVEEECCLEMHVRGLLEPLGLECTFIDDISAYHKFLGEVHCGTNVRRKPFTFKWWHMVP
Sequence of Protein-arginine deiminase type-4 (Mus musculus) (Q9Z183 whole entry): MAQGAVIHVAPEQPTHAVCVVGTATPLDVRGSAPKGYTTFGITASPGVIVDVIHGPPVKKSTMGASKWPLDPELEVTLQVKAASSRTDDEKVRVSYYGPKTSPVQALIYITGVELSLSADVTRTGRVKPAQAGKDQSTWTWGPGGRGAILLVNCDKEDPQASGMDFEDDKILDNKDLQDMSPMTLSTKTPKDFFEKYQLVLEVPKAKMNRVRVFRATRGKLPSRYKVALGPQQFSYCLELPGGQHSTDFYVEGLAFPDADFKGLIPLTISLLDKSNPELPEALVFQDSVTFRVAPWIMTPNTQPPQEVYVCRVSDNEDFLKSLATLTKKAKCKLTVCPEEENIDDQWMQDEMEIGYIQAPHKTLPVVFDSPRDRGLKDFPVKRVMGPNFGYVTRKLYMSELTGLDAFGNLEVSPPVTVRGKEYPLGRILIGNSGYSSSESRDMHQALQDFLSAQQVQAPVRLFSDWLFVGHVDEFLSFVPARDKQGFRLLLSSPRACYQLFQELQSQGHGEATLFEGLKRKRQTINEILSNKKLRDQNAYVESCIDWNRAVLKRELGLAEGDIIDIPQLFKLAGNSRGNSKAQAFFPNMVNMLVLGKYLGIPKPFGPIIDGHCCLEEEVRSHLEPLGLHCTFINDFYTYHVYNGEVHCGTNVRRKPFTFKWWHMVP

Compound	IC50 [2] [µM]	IC50 (MDA-MB-468) [µM]	IC50 (4T1) [µM]	IC50 [3] [nM]	IC50 at 48 h [1] [µM]	further results
COc1cccc2c1C(=O)c1c(O)c3c(c(O)c1C2=O)C[C@@](O)(C(=O)CO)C[C@@H]3O[C@H]1C[C@H](N)[C@H](O)[C@H](C)O1 [DOXORUBICIN HYDROCHLORIDE]	–	–	–	–	–	inhibition in vivo at 1.16 mg/kg [4]: 54.6%; Activity [5]: Non-Toxic
N=C(CCl)NCCC[C@H](NC(=O)c1c[nH]c2ccccc12)C(=O)NCc1ccccc1	0.35	117	99.9	700	120	–
N=C(CCl)NCCCC1NC(=O)N(Cc2cccc(-c3ccccc3Cl)c2)C1=O (stereo unspecified)	–	–	–	–	–	Ratio [6]: 15600 min⁻¹ M⁻¹
N=C(CCl)NCCC[C@H](NC(=O)c1nc2ccccc2[nH]1)C(=O)NCc1ccccc1	5.4	29.2	72.1	2920	29.7	–
N=C(CCl)NCCC[C@H](NC(=O)c1cc2c([nH]c3ccccc32)c(-c2nc3ccccc3[nH]2)n1)C(=O)NCc1ccccc1	> 10	3.18	1.44	9300	3	–
CC(C)(C)c1nc(C(=O)N[C@@H](CCCNC(=N)CCl)C(=O)NCc2ccccc2)cc2c1[nH]c1ccccc12	4.32	4.31	7.51	1200	3.08	–
CCC(CC)c1nc(C(=O)N[C@@H](CCCNC(=N)CCl)C(=O)NCc2ccccc2)cc2c1[nH]c1ccccc12	1.36	3.72	5.66	1100	3.82	–
CC(C)c1nc(C(=O)N[C@@H](CCCNC(=N)CCl)C(=O)NCc2ccccc2)cc2c1[nH]c1ccccc12	1.14	5.2	11.5	1180	4.07	–
N=C(CCl)NCCC[C@H](NC(=O)c1cc2c([nH]c3ccccc32)c(-c2ccc(O)cc2)n1)C(=O)NCc1ccccc1	2.26	30.5	22.9	1080	51.8	–
CN(C)c1ccc2cc(C(=O)N[C@@H](CCCNC(=N)CCl)C(=O)NCc3ccccc3)ccc2c1	5.28	5.16	7.34	3540	4.3	beta t1/2 [7]: 7.8 min; inhibition (Neutrophil): Active; Cmax [8]: 251.2 ng/mL; inhibition [9]: Active; inhibition [10]: Active; Activity [11]: Toxic; inhibition in vivo at 10 mg/kg [12]: 36.2%; Tmax [13]: 4.8 min; inhibition (Mus musculus): Active; Activity [14]: Non-Toxic; Activity [15]: Toxic; AUC(0-t) [16]: 14.9 ng·h/mL; AUC [17]: 17214.17 ng·h/mL
N=C(CCl)NCCC[C@H](NC(=O)[C@@H]1Cc2ccccc2CN1)C(=O)NCc1ccccc1	11.6	> 100	74	6460	> 100	–

Second part, led by results:

IC50 [2] [µM]	IC50 (MDA-MB-468) [µM]	IC50 (4T1) [µM]	IC50 [3] [nM]	Compound	IC50 at 48 h [1] [µM]	further results
3.77	3.99	7.64	1320	N=C(CCl)NCCC[C@H](NC(=O)c1cc2c([nH]c3ccccc32)c(-c2cccs2)n1)C(=O)NCc1ccccc1	8.03	–
> 10	3.66	1.3	14000	N=C(CCl)NCCC[C@H](NC(=O)c1cc2c([nH]c3ccccc32)c(-c2nccc3ccccc23)n1)C(=O)NCc1ccccc1	3.03	–
> 10	13.8	> 100	2030	N=C(CCl)NCCC[C@H](NC(=O)c1cc2c([nH]c3ccccc32)c(-c2cccc([N+](=O)[O-])c2)n1)C(=O)NCc1ccccc1	7.22	–
10.8	6.94	6.67	3120	N=C(CCl)NCCC[C@H](NC(=O)c1cc2c([nH]c3ccccc32)c(-c2ncc[nH]2)n1)C(=O)NCc1ccccc1	12.4	–
1.27	4.88	12.2	620	N=C(CCl)NCCC[C@H](NC(=O)c1cc2c([nH]c3ccccc32)c(C2CC2)n1)C(=O)NCc1ccccc1	4.37	–
1.51	5.87	13.9	1890	COc1cccc(OC)c1-c1nc(C(=O)N[C@@H](CCCNC(=N)CCl)C(=O)NCc2ccccc2)cc2c1[nH]c1ccccc12	14.7	–
3.64	7.45	8.07	1750	CCCCCc1nc(C(=O)N[C@@H](CCCNC(=N)CCl)C(=O)NCc2ccccc2)cc2c1[nH]c1ccccc12	8.01	–
1.63	6.18	16	2150	COc1cc(OC)c(-c2nc(C(=O)N[C@@H](CCCNC(=N)CCl)C(=O)NCc3ccccc3)cc3c2[nH]c2ccccc23)c(OC)c1	16.9	–
4.05	4.05	9.39	1130	N=C(CCl)NCCC[C@H](NC(=O)c1cc2c([nH]c3ccccc32)c(-c2ccc(Cl)cc2)n1)C(=O)NCc1ccccc1	6.35	–
1.93	> 100	> 100	2300	N=C(CCl)NCCC[C@H](NC(=O)c1ccc2c(c1)NCCN2)C(=O)NCc1ccccc1	> 100	–
> 10	3.05	0.88	13200	N=C(CCl)NCCC[C@H](NC(=O)c1cc2c([nH]c3ccccc32)c(-c2ccc3ccccc3n2)n1)C(=O)NCc1ccccc1	2.77	–
> 10	4.23	5.8	3240	N=C(CCl)NCCC[C@H](NC(=O)c1cc2c([nH]c3ccccc32)c(-c2ccc3ccccc3c2)n1)C(=O)NCc1ccccc1	9.73	–
2.28	69.5	46.2	2640	N=C(CCl)NCCC[C@H](NC(=O)c1ccc2nccnc2c1)C(=O)NCc1ccccc1	54	–
> 10	2.95	4.28	6890	CC(C)c1ccc(-c2nc(C(=O)N[C@@H](CCCNC(=N)CCl)C(=O)NCc3ccccc3)cc3c2[nH]c2ccccc23)cc1	3.52	–
